Source: patent US9822373B2, “Mutant cells for protein secretion and lignocellulose degradation” (The Regents of the University of California, priority 2011, dated 2017)

Columns and labels:
[1] = tested on: NCU05924 (endoxylanase, gh10-1); test: mRNA sequencing (RNA-Seq), transcript abundance of gh10-1; type: cell-based, Neurospora crassa; details: Δ3βG mutant; 4 hours after transfer to 0.2% cellobiose
Method: (§1) Conidia from strains were inoculated at an OD595 equal to 0.05 in 50 ml Vogel's salts (45) with 2% w/v sucrose in a 250 ml Erlenmeyer flask and grown under constant light at 200 rpm for 16 hours. Biomass was then spun at 4200 rpm for 10 minutes and washed in Vogel's salts twice to remove any excess sucrose. Biomass was then added to a new flask containing 50 ml Vogel's salts supplemented with 1% w/v sucrose, 0.2% w/v cellobiose (Sigma) or 1% w/v Avicel® PH 101 (Sigma). Cultures were induced for 4 hrs under constant light at 200 rpm. The culture biomass was then harvested by filtration over a Whatman glass microfiber filter (GF/F) on a Buchner funnel and washed with 50 ml Vogel's salts. The biomass was flash frozen in liquid nitrogen and stored at −80° C. Three independent biological duplicates (flasks) were evaluated for each time point.
(§2) Total RNA from frozen samples was isolated using Zirconia/Silica beads (0.5 mm diameter; Biospec) and a Mini-Beadbeater-96 (Biospec) with 1 mL TRIzol reagent (Invitrogen) according to the manufacturer's instructions. […]
(§3) mRNA sequencing was performed using an Illumina kit (RS-100-0801) with isolated RNA. The final cDNA library was quantified by an Agilent bioanalyzer 2000 and sequenced using an Illumina Genome Analyzer-II using standard Illumina operating procedures. […]

cbh-1 = test: mRNA sequencing (RNA-Seq), transcript abundance of cbh-1; type: cell-based, Neurospora crassa; details: Δ3βG; 4 hours after transfer to 0.2% cellobiose
Method: as §1, §2, §3

[2] = tested on: endoglucanase 2 (eg-2 / gh5-1, NCU00762); test: Quantitative RT-PCR of eg-2/gh5-1 expression after 4 h induction with a carbon source; type: cell-based, Neurospora crassa
Method: Strains were inoculated at an OD595 equal to 0.05 in 50 ml Vogel's salts with 2% (wt/vol) sucrose in a 250 ml Erlenmeyer flask and grown under constant light at 200 rpm for 16 hours. The biomass was then spun at 4000 rpm for 10 minutes and washed in Vogel's twice to remove any excess sucrose. The biomass was then added to a new 50 ml culture with 2% (wt/vol) sucrose, cellobiose (Sigma) or Avicel® PH 101 (Avicel®). Cultures were induced for 4 hours under constant light at 200 rpm. The culture biomass was then harvested by filtration over a Whatman glass microfiber filter (GF/F) on a Buchner funnel and washed with 50 ml Vogel's, biomass was flash frozen in liquid Nitrogen and stored at −80° C.
Total RNA from frozen samples was isolated using Zirconia/Silica beads (0.2 g, 0.5 mm diameter; Biospec) and a Mini-Beadbeater-96 (Biospec) with 1 mL TRIzol reagent (Invitrogen) according to manufacturer's instructions. Total RNA was further purified by digestion with TURBO DNA-free (Ambion) and an RNeasy kit (Qiagen). RNA integrity was checked by Nanodrop and agarose gel electrophoresis.
Quantitative RT-PCR was performed using the EXPRESS One-Step SYBR GreenER Kit (Invitrogen) and the StepOnePlus Real-Time PCR System (Applied Biosystems). Reactions were performed in triplicate with a total reaction volume of 10 ul including 300 nM each forward and reverse primers and 75 ng template RNA. Data Analysis was performed by the StepOne Software (Applied Biosystems) using Relative Quantitation/Comparative CT (ΔΔCT). Data was normalized to the endogenous control actin with expression on sucrose as the reference sample. Error bars indicate a 95% confidence interval. The RT-PCR primers were used as described in (Tian et al., 2009).
as §1, with “The biomass was flash frozen in liquid nitrogen and stored at −80° C.” left out, “point. […]” for “point.”
Quantitative RT-PCR was performed using the EXPRESS One-Step SYBR GreenER Kit (Invitrogen) and the StepOnePlus Real-Time PCR System (Applied Biosystems). […] Data Analysis was performed by the StepOne Software (Applied Biosystems) using the Relative Quantitation/Comparative CT (ΔΔCT) setting. […]

Neurospora crassa = test: Bioreactor cellulase production, total secreted protein in supernatant; type: cell-based; details: pre-grown 24 hours on 1% sucrose, induction with 0.2%
Method: Cellulase production was carried out in a 3.7 L bioreactor (BioEngineering AG) at an operating volume of 1 L. The bioreactor was equipped with one 48 mm Rushton impeller and four equally spaced baffles to provide adequate mixing. Impeller speed was controlled at 200 rpm for 8 hours to allow spore germination followed by 500 rpm for the remainder of the experiment. The temperature was maintained at 25° C., and medium pH was controlled at 5.5 using 40% phosphoric acid and 1:5 diluted ammonium hydroxide. The dissolved oxygen was maintained at a level greater than 20% of the saturation value of the medium by varying the aeration rate between 0.5 and 3 VVM in response to the dissolved oxygen tension. Minimal growth medium with 1% w/v sucrose as the sole carbon source (unless otherwise noted) was inoculated with 10^9 conidia. After 24 hours initial growth, cellulase production was induced with either cellobiose or Avicel® added to a final concentration of 0.2% w/v. Supernatant samples were collected at timepoint 0, 12 hours before induction, at induction, as well as 4, 8, 12, 24 and 36 hours post induction. Samples were spun at 4000 rpm for 5 minutes to pellet biomass and the supernatant was filtered through a 0.2 μm PES filter before being stored at −20° C. until all samples were collected.
Total secreted proteins were measured using the Bio-Rad Protein Assay kit (Bio-Rad) and visualized by running 15 μl of unconcentrated supernatant on a Criterion 4-14% Tris-HCL polyacrylamide gel and stained with Thermo Scientific GelCode Blue Stain Reagent.

O=C[C@H](O)[C@@H](O)[C@H](O[C@@H]1O[C@H](CO)[C@@H](O)[C@H](O)[C@H]1O)[C@H](O)CO [cellobiose]
FPKMs of NCU05924 (endoxylanase, gh10-1) [1]: 10,000 FPKMs | FPKM for cbh-1 (cbh-1): 130,865 FPKM | eg-2 relative expression compared to sucrose ([2]; WT strain, 2% carbon source, 4 h induction): no change | eg-2 increase in relative expression over expression on sucrose ([2]; triple β-glucosidase mutant, 2% carbon source, 4 h induction): 2,200 fold | increase in transcription of eg-2 above expression on sucrose in the same strain ([2]; Δcre-1 strain, 4 h induction (Example 1)): 80 fold | induction of gh5-1 ([2]; Δcre-1 strain, shifted from sucrose to 0.2% cellobiose for 4 hrs): 500 fold | protein in the supernatant (Neurospora crassa; WT): 0.05 mg/mL | protein in the supernatant (Neurospora crassa; Δ3βG): 0.12 mg/mL | protein in the supernatant (Neurospora crassa; Δ3βGΔcre): 0.24 mg/mL
